Where “and” joins values, the source holds several entries; their conditions need not be identical. Identical values can stand only once. Like-named read-outs stand apart in the source and are kept apart here.
Experiments:
Assay type in all cases: cell-based
[1] = Cytotoxicity in HBV persistently infected human HEP G2 cells, neutral red dye uptake (Table 5); conditions: human, hep-g2 cells
Excerpt: (§1) Initially, evaluations of the alkyl lipids were done to determine whether the compounds were cytotoxic to the cells at concentrations having anti-HBV activity. The assay methodology is szt forth in Korba and Germ, Antiviral Res., 19, 55-70 (1992), incorporated by reference herein. Briefly, these cell cytotoxicity evaluations were done in 96-well plates seeded with HEP-G2 cell monolayers. The hepatoblastoma cell line HEP-G2 transfected with a plasmid carrying the gene that confers resistance to […] and four 5'-3' tandem copies of the Hepatitis B virus genome was obtained from Dr. George Acs. Proc. Natl. Acad. Sci. USA, 84, 1005-1009 (1987). Serial concentrations of compound were added to the RPMI-1640 growth medium and the growth medium was added to the 96-well plates containing the cell monolayers. The cells were incubated for a total of nine days at 37° C. The compound-containing medium was periodically replaced. Each compound was tested at four serial concentrations in triplicate. After nine days of treatment and incubation, 0.01% neutral red dye (Sigma, Inc.) was added to the overlay medium. Cell cytotoxicity was quantitated by measuring the average A510. Values in Table 1 represent the percentage of average A510 values (±standard deviation) relative to nine non-treated control wells.
(§2) An analysis was periormed to determine the cytotoxicity of the following compounds in human HEP-G2 cells persistently infected with HBV: CP-51, CP-49, CP-9, CP-126, lyso PAF and CP-7. 2'-3'-Dideoxycytidine (ddC) was used as a control in this cytotoxicity analysis. The toxicity analyses were performed in 96-well flat bottomed tissue culture plates following the same procedure set forth in Example 6 above. Each compound was tested at four concentrations, each in triplicate cultures. Uptake of neutral red dye was used to determine the relative level of toxicity. The absorbance of internalized dye at […] (A510) was used for the quantitative analysis.
(§3) Values are presented as a percentage of the average A510 values (± standard deviations) in ninz separate cultures of untreated cells maintained on the same 96-well plate as the test compounds. The percentage of dye uptake in the nine control cultures was 100±1.

[2] = test system: HEP G2 cells persistently infected with HBV; test: as above
Excerpt: as §1, §2, §3

Hepatitis B virus [3] = test: Effect of alkyl lipids on HBV replication in HBV persistently infected human HEP G2 cells (Table 6); conditions: for Intracellular HBV DNA, Mono (episomal 3.2-3.8 Kb HBV genomes) / Intracellular HBV DNA, RI (replication intermediates): nine days
Experimental: Cells were treated with a particular compound for nine days at 37° C. Analysis of intracellular HEIV DNA was done 24 hours following the ninth day of treatment. […] The levels of integrated HBV DNA in each cellular DNA preparation were used to calculate the levels of episomal 3.2-3.8 Kb HBV genomes (Mono) and HBV DNA replication intermediates (RI). A zero value indicates an undetectable level of HBV virion DNA. The sensitivity cut-off was 0.1 pg DNA/ml of culture medium.

Hepatitis B virus [4] = test: Effect on synthesis of antigen markers in persistently infected human HEP G2 cell cultures (Table 7); conditions: for Relative Level of HBeAg / Relative Level of HBsAg / Relative Level of Virion DNA / activity at 10 µM: nine days; for Relative Level of HBeAg / Relative Level of HBsAg / Relative Level of Virion DNA: 12960 min; for activity at 10 µM: Hepatitis B virus, HepG2, 216 h
Experimental: Cells were treated with compound for nine days at 37° C. The overlay medium was harvested to measure levels of HBsAg, HBeAg and virion DNA. HBsAg and HBeAg were assayed by EIA (Abbott Laboratories). Virion DNA levels were measured as described in section B above.

[5] = Cytotoxicity of alkyl lipids, neutral red dye uptake (Table 1); conditions: human, hep-g2 cells
Excerpt: as §1

Hepatitis B virus [6] = test: Anti-hepatitis B virus activity in HEP-G2 cells persistently infected with HBV (Table 2); conditions: Hepatitis B virus, HepG2, 216 h, 10 μM, 9 days treatment
Experimental: HEP-G2 cells persistently infected with HBV were treated daily with fresh D-MEM containing 20% FBS and 10 μM compound. After 9 days incubation and treatment, the overlay medium was harvested to assay the quantity of Hepatitis B virus s antigen (HBsAg) and HBeAg by EIA (Abbott Laboratories). The overlay medium was diluted to levels of antigen in the linear range of the assay. Standard curves using dilutions of positive HBsAg and HBeAg controls were included in each assay. Virion DNA was assayed using the method set forth in Korba and Gerin, Antiviral Res., 19, 5,5-70 (1992), incorporated by reference herein. HBV DNA was extracted from the overlay medium containing virus particles and analyzed by a slot-blot hybridization technique using ^32 P-labelled 3.2 Kb Eco R1 HBV DNA fragment by comparisons to HBV standards present on nitrocellulose filters using an AMBIS beta scanner. EC90 values (90% effective concentration, i.e., drug concentration which induces a 90% decrease in the levels of HBV DNA replication intermediates in treated versus control cells) were calculated by linear regression analysis. The relative levels of HBsAg, HBeAg and virion DNA were calulated as a percentage of the average levels obtained from the untreated controls.

[7] = 10 μM, Day 9, 0 = undetectable, cut-off 0.1 pg DNA/ml
[8] = % of Control Neutral Red Dye Uptake

Compound	HBV Virion DNA (Hepatitis B virus [3]; 0.1 μM, Day 0)	HBV Virion DNA (Hepatitis B virus [3]; 0.1 μM, Day 3)	HBV Virion DNA (Hepatitis B virus [3]; 0.1 μM, Day 6)	HBV Virion DNA (Hepatitis B virus [3]; 0.1 μM, Day 9)	Intracellular HBV DNA, Mono (episomal 3.2-3.8 Kb HBV genomes) (Hepatitis B virus [3]; 0.1 μM)	Intracellular HBV DNA, RI (replication intermediates) (Hepatitis B virus [3]; 0.1 μM)	HBV Virion DNA (Hepatitis B virus [3]; 1 μM, Day 0)	HBV Virion DNA (Hepatitis B virus [3]; 1 μM, Day 3)	HBV Virion DNA (Hepatitis B virus [3]; 1 μM, Day 6)	HBV Virion DNA (Hepatitis B virus [3]; 1 μM, Day 9)	Intracellular HBV DNA, Mono (episomal 3.2-3.8 Kb HBV genomes) (Hepatitis B virus [3]; 1 μM)	Intracellular HBV DNA, RI (replication intermediates) (Hepatitis B virus [3]; 1 μM)	HBV Virion DNA (Hepatitis B virus [3]; 10 μM, Day 0)	HBV Virion DNA (Hepatitis B virus [3]; 10 μM, Day 3)	HBV Virion DNA (Hepatitis B virus [3]; 10 μM, Day 6)	HBV Virion DNA (Hepatitis B virus [3]; [7])	Intracellular HBV DNA, Mono (episomal 3.2-3.8 Kb HBV genomes) (Hepatitis B virus [3]; 10 μM)	Intracellular HBV DNA, RI (replication intermediates) (Hepatitis B virus [3]; 10 μM)	Relative Level of HBeAg (Hepatitis B virus [4]; 10 μM)	Relative Level of HBsAg (Hepatitis B virus [4]; 10 μM)	also measured
CCCCCCCCCCCCOCC(COP(=O)(O)OC[C@H]1O[C@@H](n2cc(C)c(=O)[nH]c2=O)C[C@@H]1N=[N+]=[N-])OCCCCCCCCCC (mixture of isomers) [CP-126, 3'-Azido-3'-deoxy-5'-(rac-3-dodecyloxy-2-decyloxy-1-propyl) phosphothymidine]	50 pg/ml Culture Medium and 52 pg/ml Culture Medium and 54 pg/ml Culture Medium and 60 pg/ml Culture Medium	77 pg/ml Culture Medium and 79 pg/ml Culture Medium and 67 pg/ml Culture Medium and 65 pg/ml Culture Medium	61 pg/ml Culture Medium and 72 pg/ml Culture Medium and 83 pg/ml Culture Medium and 66 pg/ml Culture Medium	78 pg/ml Culture Medium and 64 pg/ml Culture Medium and 82 pg/ml Culture Medium and 77 pg/ml Culture Medium	2.2 pg/μg Cell DNA and 2.6 pg/μg Cell DNA and 2.4 pg/μg Cell DNA	64 pg/μg Cell DNA and 54 pg/μg Cell DNA and 70 pg/μg Cell DNA and 89 pg/μg Cell DNA	67 pg/ml Culture Medium and 54 pg/ml Culture Medium and 70 pg/ml Culture Medium and 69 pg/ml Culture Medium	49 pg/ml Culture Medium and 57 pg/ml Culture Medium and 65 pg/ml Culture Medium and 53 pg/ml Culture Medium	40 pg/ml Culture Medium and 39 pg/ml Culture Medium and 44 pg/ml Culture Medium and 48 pg/ml Culture Medium	28 pg/ml Culture Medium and 20 pg/ml Culture Medium and 22 pg/ml Culture Medium and 26 pg/ml Culture Medium	2.3 pg/μg Cell DNA and 2.7 pg/μg Cell DNA and 2.1 pg/μg Cell DNA and 1.8 pg/μg Cell DNA	51 pg/μg Cell DNA and 67 pg/μg Cell DNA and 56 pg/μg Cell DNA and 61 pg/μg Cell DNA	60 pg/ml Culture Medium and 62 pg/ml Culture Medium and 59 pg/ml Culture Medium and 51 pg/ml Culture Medium	59 pg/ml Culture Medium and 50 pg/ml Culture Medium and 55 pg/ml Culture Medium and 66 pg/ml Culture Medium	20 pg/ml Culture Medium and 21 pg/ml Culture Medium and 26 pg/ml Culture Medium and 29 pg/ml Culture Medium	13 pg/ml Culture Medium and 8 pg/ml Culture Medium and 9 pg/ml Culture Medium and 12 pg/ml Culture Medium	1.9 pg/μg Cell DNA and 2.5 pg/μg Cell DNA and 2.0 pg/μg Cell DNA and 2.3 pg/μg Cell DNA	14 pg/μg Cell DNA and 9 pg/μg Cell DNA and 12 pg/μg Cell DNA and 16 pg/μg Cell DNA	42 % of Untreated Control	69 % of Untreated Control	viability at 216 h, 3 µM ([1]; Trial 2, 3 μM, read-out: % of Control Neutral Red Dye Uptake): 100 ± 1%; viability at 216 h, 10 µM ([1]; Trial 2, 10 μM, read-out: % of Control Neutral Red Dye Uptake): 97 ± 3%; viability at 216 h, 30 µM ([1]; Trial 2, 30 μM, read-out: % of Control Neutral Red Dye Uptake): 68 ± 1%; viability at 216 h, 100 µM ([1]; Trial 2, 100 μM, read-out: % of Control Neutral Red Dye Uptake): 20 ± 2%; Cell toxicity (greater than 50% depression of dye uptake) ([2]; at concentrations with strong or moderate antiviral activity): did not occur; inhibition of HBV replication (Hepatitis B virus [3]; in words): moderately inhibitory of HBV replication; Relative Level of Virion DNA (Hepatitis B virus [4]; 10 μM): 14 % of Untreated Control; activity at 10 µM (Hepatitis B virus [4]; read-out: Relative Level of HBeAg, 10 μM): 35%; activity at 10 µM (Hepatitis B virus [4]; read-out: Relative Level of HBsAg, 10 μM): 65%; activity at 10 µM (Hepatitis B virus [4]; read-out: Relative Level of Virion DNA, 10 μM): 10%; effect on HBsAg levels released into the culture medium (Hepatitis B virus [4]; in words): None of the compounds tested; reduction in HBeAg and virion DNA levels (Hepatitis B virus [4]; in words): caused a reduction
CCCCCCCCCCCCCCCCSCC(C[N+](C)(C)CCO)OC (racemic) [CP-7, N-[rac-3-(hexadecylthio)-2-methoxy-1-propyl]-N,N-dimethyl-N-(2-hydroxyethyl) ammonium bromide]	51 pg/ml Culture Medium and 77 pg/ml Culture Medium and 64 pg/ml Culture Medium	72 pg/ml Culture Medium and 75 pg/ml Culture Medium and 66 pg/ml Culture Medium and 51 pg/ml Culture Medium	58 pg/ml Culture Medium and 65 pg/ml Culture Medium and 98 pg/ml Culture Medium and 75 pg/ml Culture Medium	57 pg/ml Culture Medium and 89 pg/ml Culture Medium and 84 pg/ml Culture Medium and 76 pg/ml Culture Medium	2.5 pg/μg Cell DNA and 2.6 pg/μg Cell DNA and 2.8 pg/μg Cell DNA and 2.3 pg/μg Cell DNA	73 pg/μg Cell DNA and 62 pg/μg Cell DNA and 57 pg/μg Cell DNA and 76 pg/μg Cell DNA	53 pg/ml Culture Medium and 64 pg/ml Culture Medium and 54 pg/ml Culture Medium	56 pg/ml Culture Medium and 51 pg/ml Culture Medium and 66 pg/ml Culture Medium and 58 pg/ml Culture Medium	46 pg/ml Culture Medium and 52 pg/ml Culture Medium and 59 pg/ml Culture Medium	48 pg/ml Culture Medium and 44 pg/ml Culture Medium and 49 pg/ml Culture Medium and 41 pg/ml Culture Medium	2.7 pg/μg Cell DNA and 2.2 pg/μg Cell DNA and 2.3 pg/μg Cell DNA and 2.4 pg/μg Cell DNA	70 pg/μg Cell DNA and 75 pg/μg Cell DNA and 63 pg/μg Cell DNA and 68 pg/μg Cell DNA	49 pg/ml Culture Medium and 63 pg/ml Culture Medium and 70 pg/ml Culture Medium and 65 pg/ml Culture Medium	70 pg/ml Culture Medium and 64 pg/ml Culture Medium and 67 pg/ml Culture Medium and 59 pg/ml Culture Medium	35 pg/ml Culture Medium and 28 pg/ml Culture Medium and 33 pg/ml Culture Medium	8 pg/ml Culture Medium and 9 pg/ml Culture Medium and 7 pg/ml Culture Medium	2.3 pg/μg Cell DNA and 2.6 pg/μg Cell DNA and 2.5 pg/μg Cell DNA	11 pg/μg Cell DNA and 13 pg/μg Cell DNA and 10 pg/μg Cell DNA and 14 pg/μg Cell DNA	40 % of Untreated Control	69 % of Untreated Control	cytotoxicity at 216 h, 30 µM [5]: 33%; viability at 216 h, 3 µM [5]: 98 ± 2%; viability at 216 h, 10 µM [5]: 102 ± 6%; viability at 216 h, 30 µM [5]: 67 ± 3%; viability at 216 h, 100 µM [5]: 24 ± 2%; activity at 10 µM (Hepatitis B virus [6]; read-out: Relative Level of HBeAg): 43%; activity at 10 µM (Hepatitis B virus [6]; read-out: Relative Level of HBsAg): 74%; activity at 10 µM (Hepatitis B virus [6]; read-out: Relative Level of Virion DNA): 10%; viability at 216 h, 3 µM [1, 8]: 98 ± 2%; viability at 216 h, 10 µM [1, 8]: 102 ± 6%; viability at 216 h, 30 µM [1, 8]: 67 ± 3%; viability at 216 h, 100 µM [1, 8]: 24 ± 2%; Cell toxicity (greater than 50% depression of dye uptake) [2]: did not occur; Relative Level of Virion DNA (Hepatitis B virus [4]; 10 μM): 10 % of Untreated Control; activity at 10 µM (Hepatitis B virus [4]; 10 μM, read-out: Relative Level of HBeAg): 46%; activity at 10 µM (Hepatitis B virus [4]; 10 μM, read-out: Relative Level of HBsAg): 79%; activity at 10 µM (Hepatitis B virus [4]; 10 μM, read-out: Relative Level of Virion DNA): 9%
